Reference: BindingDB's records for doi:10.1021/jm501892g (Ensemble Therapeutics, 2015)

Columns and labels:
[1] = target: Baculoviral IAP repeat-containing protein 2 (cIAP1, BIRC2, Homo sapiens) (UniProt Q13490); assay: Inhibition of cIAP1 BIR3 (154 to 352 residues) (unknown origin) by fluoresceinated dimeric SMAC peptide based fluorescence polarization assay
[2] = target: E3 ubiquitin-protein ligase XIAP (BIRC4, Homo sapiens) (UniProt P98170); assay: Inhibition of XIAP BIR2-3 (125 to 356 residues) C202A/C213G mutant (unknown origin) fluoresceinated dimeric SMAC peptide based fluorescence polarization assay
E3 ubiquitin-protein ligase XIAP (BIRC4, Homo sapiens), sequence (P98170 whole entry, looked up, the tested form may be a part): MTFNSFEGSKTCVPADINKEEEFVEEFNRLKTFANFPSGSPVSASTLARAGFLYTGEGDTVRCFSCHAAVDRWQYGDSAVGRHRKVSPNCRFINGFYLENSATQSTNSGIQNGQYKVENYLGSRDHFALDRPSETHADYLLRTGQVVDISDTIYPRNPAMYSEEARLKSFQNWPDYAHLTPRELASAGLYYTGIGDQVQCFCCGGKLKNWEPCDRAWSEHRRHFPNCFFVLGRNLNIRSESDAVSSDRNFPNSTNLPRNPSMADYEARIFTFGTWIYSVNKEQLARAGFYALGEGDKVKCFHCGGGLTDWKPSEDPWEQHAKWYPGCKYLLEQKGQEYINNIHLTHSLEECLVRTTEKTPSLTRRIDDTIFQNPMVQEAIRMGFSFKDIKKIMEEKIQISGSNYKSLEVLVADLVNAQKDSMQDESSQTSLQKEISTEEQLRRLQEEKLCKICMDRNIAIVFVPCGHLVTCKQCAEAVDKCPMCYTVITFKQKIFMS

Baculoviral IAP repeat-containing protein 2 (cIAP1, BIRC2, Homo sapiens), sequence (Q13490 whole entry, looked up, the tested form may be a part): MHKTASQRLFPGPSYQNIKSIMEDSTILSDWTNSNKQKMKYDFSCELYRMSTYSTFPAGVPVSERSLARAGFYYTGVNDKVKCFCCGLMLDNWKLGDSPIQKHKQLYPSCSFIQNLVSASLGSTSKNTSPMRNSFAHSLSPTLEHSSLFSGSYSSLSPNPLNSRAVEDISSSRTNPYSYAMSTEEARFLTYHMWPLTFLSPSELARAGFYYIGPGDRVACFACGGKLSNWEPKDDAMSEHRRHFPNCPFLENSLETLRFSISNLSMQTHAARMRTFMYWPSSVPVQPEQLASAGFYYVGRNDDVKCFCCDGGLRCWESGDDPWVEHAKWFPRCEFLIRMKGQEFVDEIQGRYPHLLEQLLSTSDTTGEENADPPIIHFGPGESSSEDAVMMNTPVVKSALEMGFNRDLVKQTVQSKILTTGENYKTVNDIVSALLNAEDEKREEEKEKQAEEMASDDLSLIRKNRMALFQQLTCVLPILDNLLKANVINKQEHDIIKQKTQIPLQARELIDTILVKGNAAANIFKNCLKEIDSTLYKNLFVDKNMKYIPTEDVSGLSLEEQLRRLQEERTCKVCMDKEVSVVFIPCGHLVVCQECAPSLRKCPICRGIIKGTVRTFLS

Row | SMILES | IC50 [1] [nM] | IC50 [2] [nM] | EC50 [1] [nM]
1 | CN[C@@H](C)C(=O)N[C@H](C(=O)N1C[C@@H]2C[C@H]1C(=O)N[C@@H](Cc1ccc3ccccc3c1)C(=O)N[C@H](C(=O)O)Cc1ccc(cc1)OCc1cn(nn1)[C@H]1C[C@@H](C(=O)N[C@@H](Cc3ccc4ccccc4c3)C(=O)N[C@H](C(=O)O)Cc3ccc(cc3)OCc3cn2nn3)N(C(=O)[C@@H](NC(=O)[C@H](C)NC)C(C)C)C1)C(C)C | 17 |  | 
2 | CN[C@@H](C)C(=O)N[C@H](C(=O)N1C[C@@H]2C[C@H]1C(=O)N[C@@H](Cc1cccc3ccccc13)C(=O)N[C@H](C(=O)O)Cc1ccc(cc1)OCc1cn(nn1)[C@H]1C[C@@H](C(=O)N[C@@H](Cc3cccc4ccccc34)C(=O)N[C@H](C(=O)O)Cc3ccc(cc3)OCc3cn2nn3)N(C(=O)[C@@H](NC(=O)[C@H](C)NC)C(C)C)C1)C(C)C | 17 |  | 
3 | CN[C@@H](C)C(=O)N[C@H](C(=O)N1C[C@@H]2C[C@H]1C(=O)N[C@@H](Cc1ccccc1)C(=O)N[C@H](C(=O)O)Cc1ccc(cc1)OCc1cn(nn1)[C@H]1C[C@@H](C(=O)N[C@@H](Cc3ccccc3)C(=O)N[C@H](C(=O)O)Cc3ccc(cc3)OCc3cn2nn3)N(C(=O)[C@@H](NC(=O)[C@H](C)NC)C(C)C)C1)C(C)C | 11 |  | 
4 | CN[C@@H](C)C(=O)N[C@H](C(=O)N1C[C@@H]2C[C@H]1C(=O)N[C@@H](Cc1ccccc1)C(=O)N[C@H](C(=O)O)Cc1ccc(cc1)NC(=O)CCc1cn(nn1)[C@H]1C[C@@H](C(=O)N[C@@H](Cc3ccccc3)C(=O)N[C@H](C(=O)O)Cc3ccc(cc3)NC(=O)CCc3cn2nn3)N(C(=O)[C@@H](NC(=O)[C@H](C)NC)C(C)C)C1)C(C)C | 8 |  | 
5 | CN[C@@H](C)C(=O)N[C@H](C(=O)N1C[C@@H]2C[C@H]1C(=O)N[C@@H](Cc1ccc3ccccc3c1)C(=O)N[C@H](C(=O)O)Cc1cn(nn1)[C@H]1C[C@@H](C(=O)N[C@@H](Cc3ccc4ccccc4c3)C(=O)N[C@H](C(=O)O)Cc3cn2nn3)N(C(=O)[C@@H](NC(=O)[C@H](C)NC)C(C)C)C1)C(C)C | 10 | 9 | 
6 | CN[C@@H](C)C(=O)N[C@H](C(=O)N1C[C@@H]2C[C@H]1C(=O)N[C@@H](Cc1ccccc1)C(=O)N[C@H](C(=O)O)Cc1ccc(cc1)NC(=O)CCc1cn2nn1)C(C)C |  |  | 36
7 | CN[C@@H](C)C(=O)N[C@H](C(=O)N1C[C@@H]2C[C@H]1C(=O)N[C@@H](Cc1ccccc1)C(=O)N[C@H](C(=O)O)Cc1ccc(cc1)OCc1cn2nn1)C(C)C |  |  | 20
